# Where two headings read alike, the source gives them in different places.
# Assays:
# [1] = biological target: p53 Y220C (Homo sapiens, UniProt P04637, Y220C); test: Luciferase Reporter Assay (Luc), p53 response element, NClH1299 cells with inducible p53 Y220C; format: cell-based; conditions: luciferase reporter, NClH1299 inducible p53 Y220C, 6 hour; for AC50: read-out: Luc P53 Y220C AC50
# Procedure, shortened: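 Steps: seed 5,000 cells/well; induce mutant p53 with 0.5 ug/mL doxycycline for 24 h; treat with compound 6 h; add equal volume One-Glo, shake 5 min at room temperature; measure luciferase immediately.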
# [2] = biological target: T1, p53 Y220C mutant protein (amino acid residues 94-293) (Homo sapiens, UniProt P04637, Y220C); test: Surface Plasmon Resonance (SPR) assay, Kd_kinetic; format: binding; conditions: SPR, p53 Y220C, read-out: SPR P53 Y220C KD kinetic
# T1 construct: p53 Y220C mutant protein (amino acid residues 94-293)
# Procedure, shortened: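 Kd values come from fitting sensorgrams to a 1:1 binding model. Sensorgrams were recorded on a Biacore 8K at 16 or 20 °C in pH 7.5 Tris buffer with 100 mM NaCl, 1 mM DTT, detergents and 1% DMSO.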
# [3] = system: H1299 p53 Y220C; test: Cell Proliferation Assay (CellTiter-Glo, CTG), H1299 p53 Y220C (NClH1299-inducible p53 Y220C); format: cell-based; conditions: Homo sapiens, NCI-H1299, 120 h, CellTiter-Glo, 5 days
# Procedure, shortened: (§1)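 Tet-One inducible p53 Y220C or R273H constructs were stably introduced into NCI-H1299 by lentiviral transduction; NUGC3 was used as is. Cells (250-500 per well) were exposed to compound for 5 days, then CellTiter-Glo was added for 10 min at room temperature and IC50 was calculated from luminescence.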
# [4] = system: H1299 p53 R273H; test: Cell Proliferation Assay (CellTiter-Glo, CTG), H1299 p53 R273H (NClH1299-inducible p53 R273H); format: cell-based; conditions: Homo sapiens, NCI-H1299, 120 h, CellTiter-Glo, 5 days
# Procedure, shortened: as §1
# [5] = system: NUGC3 p53 Y220C; test: Cell Proliferation Assay (CellTiter-Glo, CTG), NUGC3 p53 Y220C; format: cell-based; conditions: Homo sapiens, NUGC-3, 120 h, CellTiter-Glo, 5 days
# Procedure, shortened: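 NClH1299 lines stably transduced with Tet-inducible p53 Y220C or R273H, plus NUGC3, were treated with compound for 5 days at 250-500 cells/well. IC50 derived from CellTiter-Glo luminescent signal after 10 min room-temperature incubation.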
# [6] = biological target: T1, p53 Y220C mutant protein (amino acid residues 94-293); test: Thermal Shift Assay (TSA), dTM; format: binding; conditions: for ΔTm at 100 µM: 100 uM compound; for ΔTm at 10 µM: 10 uM compound
# Procedure: Thermal Shift Assay (TSA) Protocol
# 5 μM recombinant p53 Y220C mutant protein (amino acid residues 94-293) was incubated with 10 μM or 100 μM compound for 3 hours at 20 °C in buffer containing 20 mM HEPES, pH7.4, 100 mM NaCl, 0.01% Pluronic F-127, and 1% DMSO in the presence of 400-fold diluted Sypro Orange (ThermoFisher Scientific catalog number 4461146), on a 384-well PCR plate (Applied Biosystems catalog number 4483285). The volume was 5 μL/well. The sealed plate was then loaded onto a QuantStudio 7 Flex instrument for melting temperature (TM) measurement. The temperature was increased from 30 °C to […], at a rate of 0.03 °C/second. Data were fit into a Boltzmann two-state model to determine the TM.
# [7] = 10 uM tool compound as positive control
# [8] = thermal shift, read-out: TSA P53 Y220C dTM (100 uM)
# [9] = NClH1299-inducible p53 Y220C cells
# [10] = NClH1299-inducible p53 R273H cells
# [11] = p53 Y220C, read-out: TSA P53 Y220C dTM
# [12] = thermal shift, read-out: TSA P53 Y220C dTM (10 uM)
SMILES,"Emax [1, 7]",AC50 [1],Kd ([2]; kinetic KD),IC50 ([3]; H1299 p53 Y220C),IC50 ([4]; H1299 p53 R273H),IC50 ([5]; NUGC3 p53 Y220C),"ΔTm at 100 µM [6, 8]",AC50 ([1]; AC50),Emax ([1]; Emax),Kd [2],"IC50 [3, 9]","IC50 [4, 10]",IC50 ([5]; NUGC3 cells),"ΔTm at 10 µM [6, 11]","ΔTm at 10 µM [6, 12]","ΔTm at 100 µM [6, 11]"
"COc1cc(S(=O)(=O)N(C)C)ccc1NCC#Cc1nc2c(N[C@@H]3CCN(C)C[C@@H]3F)cccn2c1CC(F)(F)F [Example 65, 4-{[3-(8-{[(3S,4R)-3-fluoro-1-methylpiperidin-4-yl]amino}-3-(2,2,2-trifluoroethyl)imidazo[1,2-a]pyridin-2-yl)prop-2-yn-1-yl]amino}-3-methoxy-N,N-dimethylbenzenesulfonamide]",70 to 80%,< 750 nM,10 to 100 nM,750 to 1500 nM,5000 to 8000 nM,750 to 1500 nM,≥ 10 °C,–,–,–,–,–,–,–,–,–
"CNC(=O)c1ccc(OC[C@H](C)O)c(NCC#Cc2cc3c(N[C@@H]4CCN(C)C[C@@H]4F)nccn3c2SC(F)(F)F)c1 (single isomer, unassigned) [Example 355]",–,–,–,–,–,–,–,< 750 nM,> 90%,< 10 nM,< 750 nM,≥ 10000 nM,< 750 nM,≥ 10 °C,–,–
"COc1cc(S(C)(=O)=O)ccc1NCC#Cc1nc2c(NC3CCS(=O)(=O)CC3)cccn2c1CC(F)(F)F [Example 4, 4-[(2-{3-[(4-methanesulfonyl-2-methoxyphenyl)amino]prop-1-yn-1-yl}-3-(2,2,2-trifluoroethyl)imidazo[1,2-a]pyridin-8-yl)amino]-1lambda6-thiane-1,1-dione]",< 70%,> 3000 nM,10 to 100 nM,> 3000 nM,≥ 10000 nM,1500 to 3000 nM,5 to 10 °C,–,–,–,–,–,–,–,–,–
"CNC(=O)c1ccc(NCC#Cc2nc3c(N[C@@H]4CCN(C)C[C@@H]4F)cccn3c2CC(F)(F)F)cc1 [Example 35, 4-{[3-(8-{[(3S,4R)-3-fluoro-1-methylpiperidin-4-yl]amino}-3-(2,2,2-trifluoroethyl)imidazo[1,2-a]pyridin-2-yl)prop-2-yn-1-yl]amino}-N-methylbenzamide]",70 to 80%,> 3000 nM,< 10 nM,1500 to 3000 nM,≥ 10000 nM,1500 to 3000 nM,5 to 10 °C,–,–,–,–,–,–,–,–,–
"CN1CC[C@@H](Nc2cccn3c(CC(F)(F)F)c(C#C[C@@H](O)c4ccccc4)nc23)[C@@H](F)C1 [Example 72, (1S)-3-(8-{[(3S,4R)-3-fluoro-1-methylpiperidin-4-yl]amino}-3-(2,2,2-trifluoroethyl)imidazo[1,2-a]pyridin-2-yl)-1-phenylprop-2-yn-1-ol]",< 70%,> 3000 nM,> 1000 nM,1500 to 3000 nM,< 5000 nM,750 to 1500 nM,1 to 5 °C,–,–,–,–,–,–,–,–,–
CNC(=O)c1ccc(NCC#Cc2nc3c(N[C@@H]4CCN(C)C[C@@H]4F)cccn3c2SC(F)(F)F)cc1 [Example 163],> 90%,< 750 nM,< 10 nM,< 750 nM,≥ 10000 nM,< 750 nM,≥ 10 °C,–,–,–,–,–,–,–,≥ 10 °C,–
"CNC(=O)c1ccc(NCC#Cc2cc3c(N[C@@H]4CCN(C)C[C@@H]4F)nccn3c2SC(F)F)c(OC)c1 [Example 196, 4-[(3-{6-[(difluoromethyl)sulfanyl]-1-{[(3S,4R)-3-fluoro-1-methylpiperidin-4-yl]amino}pyrrolo[1,2-a]pyrazin-7-yl}prop-2-yn-1-yl)amino]-3-methoxy-N-methylbenzamide; formic acid]",> 90%,< 750 nM,< 10 nM,< 750 nM,≥ 10000 nM,< 750 nM,≥ 10 °C,–,–,–,–,–,–,–,≥ 10 °C,–
"CNC(=O)c1ccc(NCC#Cc2nc3c(N[C@@H]4CCN(C)C[C@@H]4F)cccn3c2CC(F)(F)F)c(OC(F)F)c1 [Example 60, 3-(difluoromethoxy)-4-{[3-(8-{[(3S,4R)-3-fluoro-1-methylpiperidin-4-yl]amino}-3-(2,2,2-trifluoroethyl)imidazo[1,2-a]pyridin-2-yl)prop-2-yn-1-yl]amino}-N-methylbenzamide]",70 to 80%,> 3000 nM,< 10 nM,1500 to 3000 nM,≥ 10000 nM,1500 to 3000 nM,≥ 10 °C,–,–,–,–,–,–,–,–,–
CNC(=O)c1cnc(OC)c(NCC#Cc2nc3c(N[C@@H]4C[C@H]5CC[C@H](N5)[C@@H]4F)cccn3c2SC(F)(F)F)c1 [Example 264],–,–,–,–,–,–,–,< 750 nM,70 to 80%,< 10 nM,< 750 nM,8000 to 10000 nM,< 750 nM,≥ 10 °C,–,≥ 10 °C
CNC(=O)c1ccc(NCC#Cc2nc3c(NCC4(F)CN(C)C4)cccn3c2SC(F)(F)F)c(OC)c1 [Example 181],80 to 90%,1500 to 3000 nM,10 to 100 nM,750 to 1500 nM,5000 to 8000 nM,1500 to 3000 nM,5 to 10 °C,–,–,–,–,–,–,–,5 to 10 °C,–
"COCCN1CCC(Nc2cccn3c(CC(F)(F)F)c(C#CCNc4ccc(S(C)(=O)=O)cc4OC)nc23)CC1 [Example 113, N-(2-{3-[(4-methanesulfonyl-2-methoxyphenyl)amino]prop-1-yn-1-yl}-3-(2,2,2-trifluoroethyl)imidazo[1,2-a]pyridin-8-yl)-1-(2-methoxyethyl)piperidin-4-amine]",< 70%,1500 to 3000 nM,10 to 100 nM,750 to 1500 nM,5000 to 8000 nM,750 to 1500 nM,≥ 10 °C,–,–,–,–,–,–,–,–,–
"CN1CC[C@@H](Nc2cccn3c(CC(F)(F)F)c(C#CCNc4ccc(S(C)(=O)=O)cc4F)nc23)[C@@H](F)C1 [Example 68, (3S,4R)-3-fluoro-N-(2-{3-[(2-fluoro-4-methanesulfonylphenyl)amino]prop-1-yn-1-yl}-3-(2,2,2-trifluoroethyl)imidazo [1,2-a]pyridin-8-yl)-1-methylpiperidin-4-amine]",70 to 80%,1500 to 3000 nM,10 to 100 nM,1500 to 3000 nM,≥ 10000 nM,1500 to 3000 nM,5 to 10 °C,–,–,–,–,–,–,–,–,–
COc1cc2n[nH]cc2cc1NCC#Cc1nc2c(N[C@@H]3CCN(C)C[C@@H]3F)cccn2c1SC(F)(F)F [Example 128],80 to 90%,< 750 nM,< 10 nM,750 to 1500 nM,< 5000 nM,750 to 1500 nM,≥ 10 °C,–,–,–,–,–,–,–,≥ 10 °C,–
"CNC(=O)c1ccc(NCC#Cc2nc3c(N[C@@H]4CCN(C)C[C@@H]4F)cccn3c2NC)c(OC)c1 [Example 25, 4-{[3-(8-{[(3S,4R)-3-fluoro-1-methylpiperidin-4-yl]amino}-3-(methylamino)imidazo[1,2-a]pyridin-2-yl)prop-2-yn-1-yl]amino}-3-methoxy-N-methylbenzamide]",< 70%,> 3000 nM,100 to 1000 nM,> 3000 nM,≥ 10000 nM,> 3000 nM,5 to 10 °C,–,–,–,–,–,–,–,–,–
CNC(=O)c1ccc(NCC#Cc2nc3c(N[C@H]4Cc5cncn5C4)cccn3c2SC(F)(F)F)c(OC)c1 [Example 184],70 to 80%,1500 to 3000 nM,< 10 nM,1500 to 3000 nM,5000 to 8000 nM,750 to 1500 nM,≥ 10 °C,–,–,–,–,–,–,–,5 to 10 °C,–

# From patent US20260374766A1, “METHODS FOR TREATING CANCER” (Antares Therapeutics, Inc., priority 2022, published 2026)
